This passage reports minimal effective concentration and bioluminescence intensity results from US20040241708A1, “Recombinant vector for transforming strain to detect benzoic acid and derivatives thereof, transformant containing the recombinant vector, and method for detecting benzoic acid and derivatives thereof using the transformant” (priority 2003, published 2004).

The test system of this experiment is transformant EBNAG1 (E. coli RFM443/pNAG1, nagR-PnagG::luxCDABE). As to the kind of experiment: Detectability of transformant EBNAG1 on benzoic acid and derivatives (bioluminescence response). In kind it is cell-based, Escherichia coli. The conditions noted are these: for minimal effective concentration: Escherichia coli, read-out: MDC (Minimum detection concentration); for bioluminescence intensity: EBNAG1, 0.1953125-12.5 mM, 3 hours after seeding, FIGS. 3a and 3b. The method, then:
The EBNAG1 strain was cultivated in a 100 ml LB medium supplemented with 50 μg/ml ampicillin at 30° C. until the absorbance reached 0.08 (at 600 nm). 100 μl of aliquot was taken from the culture for the measurement of the bioluminescence intensity, and was then poured on each well of an opaque96-well plate [Microlite™, Thermo Labsystems, USA] containing chemicals to be tested (benzoic acid concentrations: 12.5, 6.25, 3.125, 1.5625, 0.78125, 0.390625 and 0.1953125 mM, and salicylic acid concentrations: 12.5, 6.25, 3.125, 1.5625, 0.78125, 0.390625 and 0.1953125 mM). The well plates were placed in a 96-well microtiter plate reader (MLX Microtiter® Plate Luminometer, DYNEX Technology, USA) to measure the bioluminescence intensity.
FIGS. 3a and 3b show the results of bioluminescent signals obtained from EBNAG1 after seeding benzoic acid and salicylic acid as a representative benzoic acid derivative at various concentrations, respectively.

With `O=C(O)c1ccc(O)cc1O` [2,4-Dihydroxybenzoic acid], the minimal effective concentration turned out to be 3130 µM.

Consider `O=C(O)c1ccc(O)c(O)c1` [3,4-Dihydroxybenzoic acid], for which the minimal effective concentration is 6250 µM.

As to `COc1ccc(CO)cc1OC` [3,4-Dimethoxybenzylalcohol], the minimal effective concentration is 390 µM.

`O=C(O)c1cc(O)cc(O)c1` [3,5-Dihydroxybenzoic acid]: the minimal effective concentration was 3130 µM.

In the case of `O=C(O)c1ccc(Cl)cc1O` [4-Chlorosalicylic acid], the minimal effective concentration was under 390 µM.

For `O=C(O)c1cc(Cl)ccc1O` [5-Chlorosalicylic acid], the minimal effective concentration stood at 390 µM.

Take `O=C(O)c1ccccc1` [Benzoic acid]: the bioluminescence intensity result is on record as “increased in proportion to the benzoic acid concentrations” and the minimal effective concentration was determined as 390 µM.

With `O=C(O)c1ccccc1O` [Salicylic acid], the bioluminescence intensity result was “increased in proportion to the salicylic acid concentrations” and the minimal effective concentration was 195 µM.
